pIC50: −log10 of the molar value. Converted amounts (≈) assume the structure as drawn.
What was measured:
L02 = experiment: Antiproliferative activity against human HL7702 cells assessed as cell growth inhibition measured after 72 hrs by MTT assay; type: functional, cell-based; conditions: L02, 72 h
[1] = Antiproliferative activity against human WI-38 cells assessed as cell growth inhibition measured after 72 hrs by MTT assay; type: toxicity, cell-based
MGC-803 = experiment: Antiproliferative activity against human MGC-803 cells assessed as inhibition of cell growth incubated for 72 hrs by MTT assay; type: functional, cell-based; conditions: MGC-803, 72 h
HeLa = experiment: Antitumor activity against human HeLa cells assessed as cell growth inhibition incubated for 72 hrs by MTT assay; type: functional, cell-based
T-24 = experiment: Antiproliferative activity against human T-24 cells assessed as inhibition of cell growth incubated for 72 hrs by MTT assay; type: functional, cell-based; conditions: T-24, 72 h
[2] = Antiproliferative activity against mouse Ba/F3 EML4-ALK cells assessed as inhibition of cell growth; type: functional, cell-based
[3] = molecular target: Aldo-keto reductase family 1 member B1 (Homo sapiens, UniProt P15121); experiment: Inhibition of human recombinant ALDR1
[4] = Antiproliferative activity against human PaTu8988 cells assessed as reduction in cell viability measured after 72 hrs by MTT assay; type: functional, cell-based; conditions: PaTu8988, 72 h
SMMC-7721 = experiment: Antiproliferative activity against human SMMC-7721 cells assessed as reduction in cell viability measured after 72 hrs by MTT assay; type: functional, cell-based; conditions: SMMC-7721, 72 h
SGC-7901 = experiment: Antiproliferative activity against human SGC-7901 cells assessed as reduction in cell viability measured after 72 hrs by MTT assay; type: functional, cell-based; conditions: SGC-7901, 72 h
MCF7 [5] = experiment: Antiproliferative activity against human MCF7 cells assessed as inhibition of cell growth at 0.1 uM incubated for 24 hrs by SRB assay relative to control; type: functional; set-up: scale not given: the % may be the effect or the level left
HCT-116 [6] = experiment: Antiproliferative activity against human HCT-116 cells assessed as inhibition of cell growth at 0.1 uM incubated for 24 hrs by SRB assay relative to control; type: functional; set-up: scale not given: the % may be the effect or the level left
MDA-MB-231 = experiment: Antiproliferative activity against human MDA-MB-231 cells assessed as inhibition of cell growth at 0.1 uM incubated for 24 hrs by SRB assay relative to control; type: functional; set-up: scale not given: the % may be the effect or the level left
MCF7 [7] = experiment: Cytotoxicity against human MCF7 cells assessed as cell growth inhibition measured after 48 hrs by MTT assay; type: functional, cell-based; conditions: MCF7, 48 h
HCT-116 [8] = experiment: Cytotoxicity against human HCT-116 cells assessed as cell growth inhibition measured after 48 hrs by MTT assay; type: functional, cell-based; conditions: HCT-116, 48 h
K562 = experiment: Cytotoxicity against human K562 cells assessed as cell growth inhibition measured after 48 hrs by MTT assay; type: functional, cell-based; conditions: K562, 48 h
MCF7 [9] = experiment: Cytotoxicity against human MCF7 cells assessed as reduction in cell growth measured after 48 hrs by MTT assay; type: functional, cell-based; conditions: MCF7, 48 h
[10] = Cytotoxicity against human MRC5 cells assessed as reduction in cell growth measured after 48 hrs by MTT assay; type: toxicity, cell-based
PC-9 = experiment: Antiproliferative activity against human PC-9 cells assessed as reduction in cell growth incubated for 72 hrs by MTT assay; type: functional, cell-based; conditions: PC-9, 72 h
PC-9/ER = experiment: Antiproliferative activity against human PC-9/ER cells assessed as inhibition of cell growth incubated for 48 hrs by MTT assay; type: functional
Caco-2 = experiment: Growth inhibition of human Caco-2 cells measured after 48 hrs by SRB assay; type: functional
AGS = experiment: Growth inhibition of human AGS cells measured after 48 hrs by SRB assay; type: functional
[11] = Cytotoxicity against African green monkey Vero cells incubated for 48 hrs by SRB colorimetric assay; type: toxicity, cell-based, Chlorocebus sabaeus
Histone deacetylase 2 = Histone deacetylase 2 (Homo sapiens, UniProt Q92769); experiment: Inhibition of human recombinant HDAC2
Histone deacetylase 3 = Histone deacetylase 3 (Homo sapiens, UniProt O15379); experiment: Inhibition of human recombinant HDAC3
Histone deacetylase 1 = Histone deacetylase 1 (Homo sapiens, UniProt Q13547); experiment: Inhibition of human recombinant HDAC1
MCF7 [12] = experiment: Antiproliferative activity against human MCF7 cells assessed as reduction in cell viability incubated for 48 hrs by MTT assay; type: functional, cell-based; conditions: MCF7, 48 h
Plasmodium falciparum = experiment: Antiplasmodial activity against chloroquine-sensitive Plasmodium falciparum NF54 assessed as reduction in parasite growth; type: functional, organism-based
[13] = tested on: Mycobacterium tuberculosis; experiment: Antimycobacterial activity against Mycobacterium tuberculosis H37Rv assessed as inhibition of bacterial growth by microplate alamar blue assay; type: functional
A549 = experiment: Cytotoxicity against human A549 cells assessed as reduction in cell growth measured after 24 hrs by MTT assay; type: functional, cell-based; conditions: A549, 24 h
Human coronavirus 229E = experiment: Antiviral activity against Human coronavirus 229E cells assessed as inhibition of virus-induced cytopathic effect by crystal violet staining based analysis; type: functional, organism-based
NCI-H460 = experiment: Growth inhibition of human NCI-H460 cells measured after 48 hrs by SRB assay; type: functional
MCF7 [14] = experiment: Growth inhibition of human MCF7 cells measured after 48 hrs by SRB assay; type: functional

Sequence of Histone deacetylase 3 (O15379 whole entry): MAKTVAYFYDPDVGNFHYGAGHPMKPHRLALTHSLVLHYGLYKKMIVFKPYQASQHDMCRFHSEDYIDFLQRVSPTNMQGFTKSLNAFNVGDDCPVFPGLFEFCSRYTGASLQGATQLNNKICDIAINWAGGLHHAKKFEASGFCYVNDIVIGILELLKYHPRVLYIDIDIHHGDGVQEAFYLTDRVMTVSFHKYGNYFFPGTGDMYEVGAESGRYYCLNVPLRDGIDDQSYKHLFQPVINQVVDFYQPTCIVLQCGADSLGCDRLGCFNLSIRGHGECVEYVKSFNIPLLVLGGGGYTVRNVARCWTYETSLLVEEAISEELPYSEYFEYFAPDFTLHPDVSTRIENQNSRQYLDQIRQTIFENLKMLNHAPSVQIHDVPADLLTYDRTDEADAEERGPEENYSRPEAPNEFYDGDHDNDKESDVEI
Sequence of Histone deacetylase 1 (Q13547 whole entry): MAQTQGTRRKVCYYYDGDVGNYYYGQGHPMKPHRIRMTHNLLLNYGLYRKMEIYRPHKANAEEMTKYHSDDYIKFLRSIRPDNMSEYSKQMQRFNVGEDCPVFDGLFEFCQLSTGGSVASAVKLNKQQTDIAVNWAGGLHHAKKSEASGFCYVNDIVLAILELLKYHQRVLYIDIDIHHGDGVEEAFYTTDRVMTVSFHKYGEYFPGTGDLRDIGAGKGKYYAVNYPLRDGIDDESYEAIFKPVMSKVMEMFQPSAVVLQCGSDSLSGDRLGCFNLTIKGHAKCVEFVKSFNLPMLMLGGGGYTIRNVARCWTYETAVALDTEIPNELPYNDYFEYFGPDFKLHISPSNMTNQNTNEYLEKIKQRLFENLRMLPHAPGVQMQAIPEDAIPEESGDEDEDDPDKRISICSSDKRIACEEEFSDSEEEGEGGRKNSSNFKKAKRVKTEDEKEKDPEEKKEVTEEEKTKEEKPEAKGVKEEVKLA
Sequence of Histone deacetylase 2 (Q92769 whole entry): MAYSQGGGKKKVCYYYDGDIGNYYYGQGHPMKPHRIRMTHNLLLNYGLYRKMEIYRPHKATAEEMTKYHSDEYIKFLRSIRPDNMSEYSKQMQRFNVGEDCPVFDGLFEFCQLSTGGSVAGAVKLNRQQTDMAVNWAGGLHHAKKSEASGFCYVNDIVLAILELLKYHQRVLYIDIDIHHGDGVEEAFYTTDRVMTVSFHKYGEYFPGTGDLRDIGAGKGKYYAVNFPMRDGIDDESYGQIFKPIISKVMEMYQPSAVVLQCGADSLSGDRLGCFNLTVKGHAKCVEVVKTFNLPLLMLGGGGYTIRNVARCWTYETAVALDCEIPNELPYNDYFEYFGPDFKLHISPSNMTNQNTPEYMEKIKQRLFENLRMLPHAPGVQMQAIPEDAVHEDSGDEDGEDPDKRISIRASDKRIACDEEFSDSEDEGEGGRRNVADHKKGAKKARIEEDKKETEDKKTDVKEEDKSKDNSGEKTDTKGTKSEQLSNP

Work on `Clc1ccc(-c2nc3oc4ccccc4c3nc2-c2ccc(Cl)cc2)cc1` yielded a pIC50 (L02) of 4.60, an IC50 at 72 h [1] greater than 40 µM and a pIC50 (MGC-803) of 4.69. For the same compound, the pIC50 (HeLa) was 5.00 and the pIC50 (T-24) was 4.90.
With `CCc1nc(C(N)=O)c(Nc2ccc3c(c2)CCN(C2CC=CC2)CC3)nc1NC1CCOCC1` the pIC50 [2] was 8.92.
For `O=C(c1ccc(O)cc1)c1ncc(-c2ccc(O)cc2)nc1C(=O)c1ccc(O)cc1`, the pIC50 [3] was 5.19.
In the case of `COc1cccc(/C=N/C(=O)c2cnccn2)c1O`, the pIC50 [4] was 6.52, the pIC50 (SMMC-7721) was 6.52 and the pIC50 (SGC-7901) was 6.52.
For `Nc1nc(N2CCCC2CC2CCCC2CO)cnc1-c1cccc(Cl)c1Cl` (stereo not given), the Activity (MCF7 [5]) was 30%, the Activity (HCT-116 [6]) was 27% and the Activity (MDA-MB-231) was 32%.
Work on `c1ccc(CNc2c(-c3ccncc3)nc3cnccn23)cc1` yielded a pIC50 (MCF7 [7]) of 5.18, a pIC50 (HCT-116 [8]) of 5.18 and a pIC50 (K562) of 5.18.
With `C/C(=N\NC(=S)N1CCCCC1)c1cnccn1` the pIC50 (MCF7 [9]) was 5.42 and the IC50 at 48 h [10] was greater than 60 µM.
With `c1cc2cc(-c3cnc4nc(-c5ccc6c(c5)OCCO6)cnc4c3)ccc2[nH]1` the pIC50 (PC-9) was 7.05 and the IC50 (PC-9/ER) was 0.15 µM.
`COC(=O)c1sc2nccnc2c1Nc1ccc(OC)c(OC)c1` gave a GI50 (Caco-2) of 8 µM, a GI50 (AGS) of 9.2 µM and an IC50 at 48 h [11] of 53 µM.
Work on `COc1cnc(C(=O)NCC2(C)CCCC3(C)c4ccc(C(C)C)cc4CCC23)cn1` (stereo not given) yielded a pIC50 (Histone deacetylase 2) of 6.55, a pIC50 (Histone deacetylase 3) of 6.51 and a pIC50 (Histone deacetylase 1) of 6.89. For the same compound, the pIC50 (MCF7 [12]) was 5.18.
With `O=C(NCCNc1ccnc2cc(Cl)ccc12)c1cnccn1` the pIC50 (Plasmodium falciparum) was 6.19 and the MIC99 [13] was 320 µM (≈ 105 µg/mL).
For `N/C(=N\N=C\c1ccccc1)c1cnccn1`, the IC50 (A549) was 0.173 µg/mL (≈ 0.768 µM).
For `c1cc(-c2nc3cnccn3c2NC2CCCCC2)ccn1`, the pIC50 (Human coronavirus 229E) was 4.24.
With `COC(=O)c1sc2nccnc2c1Nc1cc(OC)cc(OC)c1` the GI50 (Caco-2) was 87 µM, the GI50 (NCI-H460) was 53 µM and the IC50 at 48 h [11] was 144 µM. It also gave a GI50 (MCF7 [14]) of 41 µM.

— ChEMBL document CHEMBL5625161, “Pharmacological activity and mechanism of pyrazines” (Eur J Med Chem, 2023)
